Measurements reported in patent US20120289524A1, “PYRROLO [3,2-E] [1,2,4] TRIAZOLO [1,5-A] PYRIMIDINES DERIVATIVES AS INHIBITORS OF MICROGLIA ACTIVATION” (Senexis Limited, priority 2009, published 2012).
Where two headings read alike, the source gives them in different places.

Experiments:
[1] = test system: Mouse BALB/c monocyte macrophages, J774.2; test: Inhibition of β-amyloid induced activation: TNF-alpha release (ELISA / Meso Scale Discovery); format: cell-based; details: J774.2 cells, 20 μM Aβ(1-42), 50 U/ml Interferon gamma, 24 hours, read-out: IC50 (μM) TNF-α release
Method: (§1) 1. Inhibition of β-amyloid Induced Activation.
(§2) Mouse BALB/c monocyte macrophages, J774.2, {ECACC 85011428} were grown and sub-cultured in cell media (DMEM containing 10% FBS, 1% L-glutamine and 1% penicillin/streptomycin). The J774 cells were plated at 100,000 cells/well in 50 μl cell media on 96 well plates and placed in a 37° C., 5% CO2 incubator overnight prior to experiments.
(§3) The addition of Aβ(1-42) and compounds to the J774 cells was performed using a Biotek precision 2000 liquid handling instrument. 3 μl of compound in DMSO ranging from 8 μM to 6 mM were pipetted into a “daughter plate” containing 294 μl of cell media and mixed thoroughly. 3 μl of Aβ(1-42) in DMSO at 4 mM was then added to the “daughter plate” and mixed thoroughly. 50 μl was then removed from the “daughter plate” and added to the plated J774 cells. The final concentrations in the wells containing 100 μl cell media were 20 μM Aβ(1-42), the compounds ranged from ˜40 nM to 30 μM in 1% DMSO and also in the presence of 50 U/ml Interferon gamma. The plates were incubated for 24 hours in a 37° C., 5% CO2 incubator. After 24 hours incubation the media from the wells were collected and stored at −20° C. until required for testing.
The TNF-alpha levels in the media were tested using a TNF-alpha ELISA (R&D Systems MTA00) or Meso Scale Discovery MS6000 Mouse Proinflammatory-7 kit, using the manufacturers instructions.

[2] = Pharmacokinetic data; details: in vivo; for bioavailability: oral
[3] = test system: Mouse BALB/c monocyte macrophages, J774.2; test: Inhibition of β-amyloid induced activation: nitric oxide release (Griess assay); format: cell-based; details: J774.2 cells, 20 μM Aβ(1-42), 50 U/ml Interferon gamma, 24 hours, read-out: IC50 (μM) NO release
Method: as §1, §2, §3
The nitric oxide levels in the media were tested using the Griess assay (Promega G2930) using the manufacturer's instructions.

[4] = iv, read-out: T1/2 i.v. (converted)
[5] = per oral, read-out: T1/2 per oral (converted)

IC50 [1] [µM]	half-life [2, 4] [min]	bioavailability [2] [%]	half-life [2, 5] [min]	IC50 [3] [µM]	SMILES
> 30	–	–	–	–	Cc1nc2ncnn2c2c1CCN2[C@H](C)c1ccccc1 [Compound 4, reference compound]
–	13.2	34.5	144	–	Cc1nc2ncnn2c2c1CCN2[C@@H](C)c1ccccc1 [reference compound]
0.48	52.2	98.5	192	0.24	Cc1nc2ncnn2c2c1CCN2[C@@H](C)c1ccc(F)cc1 [Compound 1]
